Results reported in US8952024B2, “Herbicidal pyrimidone derivatives” (E I du Pont de Nemours and Company, priority 2009, dated 2015).

Assays:
Type in all cases: in vivo
[1] = test system: ducksalad (Heteranthera limosa); assay: Test B flooded paddy test; settings: for Plant response rating, Flood, Ducksalad: 250 g ai/ha, flooded paddy test, visual rating on 0 to 100 scale (0 no effect, 100 complete control) after 13 to 15 days; for Plant response rating, Ducksalad: Flood (flooded paddy test), 13 to 15 days
Summary of the method: (§1)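 Visual scores run from 0 (no effect) to 100 (complete control), assigned by comparison with controls 13 to 15 days after treatment. Test compounds went straight into water standing 3 cm above the soil, around plants at the 2-leaf stage kept in a greenhouse.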

[2] = test system: umbrella sedge (Cyperus difformis); assay: Test B flooded paddy test; settings: for Plant response rating, Flood, Sedge, Umbrella: 250 g ai/ha, flooded paddy test, visual rating on 0 to 100 scale (0 no effect, 100 complete control) after 13 to 15 days; for Plant response rating, Sedge, Umbrella: Flood (flooded paddy test), 13 to 15 days
Summary of the method: as §1

rice (Oryza sativa) = assay: Test B flooded paddy test; settings: for Plant response rating, Flood, Rice: 250 g ai/ha, flooded paddy test, visual rating on 0 to 100 scale (0 no effect, 100 complete control) after 13 to 15 days; for Plant response rating, Rice: Flood (flooded paddy test), 13 to 15 days
Summary of the method: as §1

[3] = test system: barnyardgrass (Echinochloa crus-galli); assay: Test B flooded paddy test; settings: for Plant response rating, Flood, Barnyardgrass: 250 g ai/ha, flooded paddy test, visual rating on 0 to 100 scale (0 no effect, 100 complete control) after 13 to 15 days; for Plant response rating, Barnyardgrass: Flood (flooded paddy test), 13 to 15 days
Summary of the method: as §1

[4] = test system: nightshade (eastern black nightshade, Solanum ptycanthum); assay: Test B pre-/postemergence plant response; settings: Preemergence; for Nightshade plant response rating: 125 g ai/ha
Summary of the method: (§2)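 Ratings reflect visual comparison with untreated controls 13 to 15 days after application, from 0 (no effect) to 100 (complete control). Application was preemergence to seeded loam/sand soil or postemergence to 1- to 4-leaf plants, with compound in a non-phytotoxic, surfactant-containing solvent.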

[5] = test system: sunflower (common oilseed sunflower, Helianthus annuus); assay: Test B pre-/postemergence plant response; settings: Preemergence; for Sunflower plant response rating: 125 g ai/ha
Summary of the method: as §2

[6] = test system: galium (catchweed bedstraw, Galium aparine); assay: Test B pre-/postemergence plant response; settings: Preemergence; for Galium plant response rating: 125 g ai/ha
Summary of the method: as §2

[7] = test system: pigweed (Amaranthus retroflexus); assay: Test A pre-/postemergence plant response
Summary of the method: (§3)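 Plants grown from seed in a loam soil and sand mix received test compounds both as a preemergence soil spray and, at the same time, as a postemergence spray at the one- to two-leaf stage. Injury was judged visually against untreated controls roughly ten days later, 0 meaning no effect and 100 complete control.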

corn (Zea mays) = assay: Test A pre-/postemergence plant response
Summary of the method: as §3

[8] = test system: giant foxtail (Setaria faberii); assay: Test A pre-/postemergence plant response
Summary of the method: as §3

[9] = test system: barnyardgrass (Echinochloa crus-galli); assay: Test A pre-/postemergence plant response
Summary of the method: as §3

[10] = test system: goosegrass (Eleusine indica); assay: Test B pre-/postemergence plant response; settings: Preemergence, 62 g ai/ha; scale 0 to 100, 0 no effect, 100 complete control
[11] = 31 g ai/ha, scale of 0 to 100 where 0 is no effect and 100 is complete control
[12] = 62 g ai/ha, scale 0 to 100, 0 is no effect, 100 is complete control
[13] = 125 g ai/ha, scale 0 to 100, 0 is no effect, 100 is complete control
[14] = 31 g ai/ha, scale 0 to 100 (0 no effect, 100 complete control)
[15] = 62 g ai/ha, scale 0 to 100, 0 no effect, 100 complete control
[16] = Postemergence, 125 g ai/ha, visual injury, 0 to 100 scale (0 no effect, 100 complete control), approx. ten days
[17] = Postemergence, 500 g ai/ha, 0 to 100 scale, 0 = no effect, 100 = complete control, approx. ten days
[18] = Preemergence, 125 g ai/ha, 0 to 100 scale, 0 = no effect, 100 = complete control
[19] = Preemergence, 500 g ai/ha, visual injury, 0 to 100 scale (0 no effect, 100 complete control), approx. ten days
[20] = 62 g ai/ha, scale of 0 to 100 where 0 is no effect and 100 is complete control

Structure (SMILES): O=C1CCCC(O)=C1C(=O)c1cnc(-c2cccc(Cl)c2)n(-c2ccccc2)c1=O [Compound 34]
- Plant response rating, Flood, Ducksalad [1]: 65
- Plant response rating, Ducksalad [1, 11]: 0
- Plant response rating, Ducksalad [1, 12]: 0
- Plant response rating, Ducksalad [1, 13]: 30
- Plant response rating, Flood, Sedge, Umbrella [2]: 40
- Plant response rating, Sedge, Umbrella [2, 11]: 0
- Plant response rating, Sedge, Umbrella [2, 12]: 0
- Plant response rating, Sedge, Umbrella [2, 13]: 0
- Plant response rating, Flood, Rice (rice (Oryza sativa)): 0
- Plant response rating, Rice (rice (Oryza sativa); [11]): 0
- Plant response rating, Rice (rice (Oryza sativa); [12]): 0
- Plant response rating, Rice (rice (Oryza sativa); [13]): 0
- Plant response rating, Flood, Barnyardgrass [3]: 0
- Plant response rating, Barnyardgrass [3, 11]: 0
- Plant response rating, Barnyardgrass [3, 12]: 0
- Plant response rating, Barnyardgrass [3, 13]: 0
- Plant response rating, Nightshade ([4]; 250 g ai/ha, 0 to 100 scale): 100
- Plant response rating, Nightshade [4, 14]: 55
- Plant response rating, Nightshade [4, 15]: 95
- Nightshade plant response rating ([4]; 0 to 100 scale): 100
- Plant response rating, Sunflower ([5]; 250 g ai/ha, 0 to 100 scale): 90
- Plant response rating, Sunflower [5, 14]: 55
- Plant response rating, Sunflower [5, 15]: 70
- Sunflower plant response rating ([5]; 0 to 100 scale): 80
- Plant response rating, Galium ([6]; 250 g ai/ha, 0 to 100 scale): 98
- Plant response rating, Galium [6, 14]: 10
- Plant response rating, Galium [6, 15]: 50
- Galium plant response rating ([6]; 0 to 100 scale): 90
- Pigweed plant response rating [7, 16]: 100
- Plant response rating, Pigweed [7, 17]: 100
- Plant response rating, Pigweed [7, 18]: 90
- Plant response rating, Pigweed [7, 19]: 100
- Corn plant response rating (corn (Zea mays); [16]): 0
- Plant response rating, Corn (corn (Zea mays); [17]): 30
- Plant response rating, Corn (corn (Zea mays); [18]): 0
- Plant response rating, Corn (corn (Zea mays); [19]): 0
- Foxtail, Giant plant response rating [8, 16]: 90
- Plant response rating, Foxtail, Giant [8, 17]: 100
- Plant response rating, Foxtail, Giant [8, 18]: 60
- Plant response rating, Foxtail, Giant [8, 19]: 100
- Barnyardgrass plant response rating [9, 16]: 90
- Plant response rating, Barnyardgrass [9, 17]: 100
- Plant response rating, Barnyardgrass [9, 18]: 10
- Plant response rating, Barnyardgrass [9, 19]: 100
- Plant response rating, Goosegrass [10]: 100

Structure (SMILES): O=C1CCCC(O)=C1C(=O)c1cnc(-c2ccccc2)n(-c2ccccc2Br)c1=O [Compound 37]
- Plant response rating, Flood, Ducksalad [1]: 60
- Plant response rating, Ducksalad [1, 11]: 0
- Plant response rating, Ducksalad [1, 12]: 30
- Plant response rating, Ducksalad [1, 13]: 50
- Plant response rating, Flood, Sedge, Umbrella [2]: 40
- Plant response rating, Sedge, Umbrella [2, 11]: 0
- Plant response rating, Sedge, Umbrella [2, 12]: 20
- Plant response rating, Sedge, Umbrella [2, 13]: 30
- Plant response rating, Flood, Rice (rice (Oryza sativa)): 20
- Plant response rating, Rice (rice (Oryza sativa); [11]): 0
- Plant response rating, Rice (rice (Oryza sativa); [12]): 0
- Plant response rating, Rice (rice (Oryza sativa); [13]): 0
- Plant response rating, Flood, Barnyardgrass [3]: 0
- Plant response rating, Barnyardgrass [3, 11]: 0
- Plant response rating, Barnyardgrass [3, 12]: 0
- Plant response rating, Barnyardgrass [3, 13]: 0
- Plant response rating, Nightshade ([4]; 250 g ai/ha, 0 to 100 scale): 85
- Plant response rating, Nightshade [4, 14]: 0
- Plant response rating, Nightshade [4, 15]: 40
- Nightshade plant response rating ([4]; 0 to 100 scale): 80
- Plant response rating, Sunflower ([5]; 250 g ai/ha, 0 to 100 scale): 90
- Plant response rating, Sunflower [5, 14]: 0
- Sunflower plant response rating ([5]; 0 to 100 scale): 45
- Plant response rating, Galium ([6]; 250 g ai/ha, 0 to 100 scale): 100
- Plant response rating, Galium [6, 14]: 0
- Plant response rating, Galium [6, 15]: 10
- Galium plant response rating ([6]; 0 to 100 scale): 30
- Pigweed plant response rating [7, 16]: 100
- Plant response rating, Pigweed [7, 17]: 100
- Plant response rating, Pigweed [7, 18]: 50
- Plant response rating, Pigweed [7, 19]: 100
- Corn plant response rating (corn (Zea mays); [16]): 0
- Plant response rating, Corn (corn (Zea mays); [17]): 40
- Plant response rating, Corn (corn (Zea mays); [18]): 0
- Plant response rating, Corn (corn (Zea mays); [19]): 0
- Foxtail, Giant plant response rating [8, 16]: 70
- Plant response rating, Foxtail, Giant [8, 17]: 90
- Plant response rating, Foxtail, Giant [8, 18]: 10
- Plant response rating, Foxtail, Giant [8, 19]: 50
- Barnyardgrass plant response rating [9, 16]: 50
- Plant response rating, Barnyardgrass [9, 17]: 90
- Plant response rating, Barnyardgrass [9, 18]: 0
- Plant response rating, Barnyardgrass [9, 19]: 30
- Plant response rating, Goosegrass [10]: 0

Structure (SMILES): Cc1ccc(-n2c(-c3cccc(Cl)c3)ncc(C(=O)C3=C(O)CCCC3=O)c2=O)cc1 [Compound 39]
- Plant response rating, Flood, Ducksalad [1]: 90
- Plant response rating, Ducksalad [1, 12]: 80
- Plant response rating, Flood, Sedge, Umbrella [2]: 90
- Plant response rating, Sedge, Umbrella [2, 12]: 90
- Plant response rating, Flood, Rice (rice (Oryza sativa)): 15
- Plant response rating, Rice (rice (Oryza sativa); [12]): 0
- Plant response rating, Flood, Barnyardgrass [3]: 30
- Plant response rating, Barnyardgrass [3, 12]: 0
- Plant response rating, Nightshade ([4]; 250 g ai/ha, 0 to 100 scale): 100
- Plant response rating, Nightshade [4, 14]: 50
- Plant response rating, Nightshade [4, 15]: 100
- Nightshade plant response rating ([4]; 0 to 100 scale): 100
- Plant response rating, Sunflower ([5]; 250 g ai/ha, 0 to 100 scale): 65
- Plant response rating, Sunflower [5, 14]: 0
- Sunflower plant response rating ([5]; 0 to 100 scale): 25
- Plant response rating, Galium ([6]; 250 g ai/ha, 0 to 100 scale): 85
- Plant response rating, Galium [6, 14]: 70
- Plant response rating, Galium [6, 15]: 80
- Galium plant response rating ([6]; 0 to 100 scale): 85
- Pigweed plant response rating [7, 16]: 100
- Plant response rating, Pigweed [7, 17]: 100
- Plant response rating, Pigweed [7, 18]: 60
- Plant response rating, Pigweed [7, 19]: 90
- Corn plant response rating (corn (Zea mays); [16]): 0
- Plant response rating, Corn (corn (Zea mays); [17]): 40
- Plant response rating, Corn (corn (Zea mays); [18]): 0
- Plant response rating, Corn (corn (Zea mays); [19]): 0
- Foxtail, Giant plant response rating [8, 16]: 80
- Plant response rating, Foxtail, Giant [8, 17]: 90
- Plant response rating, Foxtail, Giant [8, 18]: 50
- Plant response rating, Foxtail, Giant [8, 19]: 90
- Barnyardgrass plant response rating [9, 16]: 60
- Plant response rating, Barnyardgrass [9, 17]: 90
- Plant response rating, Barnyardgrass [9, 18]: 10
- Plant response rating, Barnyardgrass [9, 19]: 90
- Plant response rating, Goosegrass [10]: 100

Structure (SMILES): Cc1cccc(-n2c(-c3cccc(Cl)c3)ncc(C(=O)C3=C(O)CCCC3=O)c2=O)c1 [Compound 45]
- Plant response rating, Flood, Ducksalad [1]: 90
- Plant response rating, Ducksalad [1, 20]: 20
- Plant response rating, Flood, Sedge, Umbrella [2]: 85
- Plant response rating, Sedge, Umbrella [2, 20]: 70
- Plant response rating, Flood, Rice (rice (Oryza sativa)): 20
- Plant response rating, Rice (rice (Oryza sativa); [20]): 15
- Plant response rating, Flood, Barnyardgrass [3]: 30
- Plant response rating, Barnyardgrass [3, 20]: 0
- Plant response rating, Nightshade ([4]; 250 g ai/ha, 0 to 100 scale): 100
- Plant response rating, Nightshade [4, 14]: 98
- Plant response rating, Nightshade [4, 15]: 100
- Nightshade plant response rating ([4]; 0 to 100 scale): 100
- Plant response rating, Sunflower ([5]; 250 g ai/ha, 0 to 100 scale): 75
- Plant response rating, Sunflower [5, 14]: 0
- Sunflower plant response rating ([5]; 0 to 100 scale): 10
- Plant response rating, Galium ([6]; 250 g ai/ha, 0 to 100 scale): 85
- Plant response rating, Galium [6, 14]: 40
- Plant response rating, Galium [6, 15]: 40
- Galium plant response rating ([6]; 0 to 100 scale): 50
- Pigweed plant response rating [7, 16]: 90
- Plant response rating, Pigweed [7, 17]: 100
- Plant response rating, Pigweed [7, 18]: 80
- Plant response rating, Pigweed [7, 19]: 100
- Corn plant response rating (corn (Zea mays); [16]): 0
- Plant response rating, Corn (corn (Zea mays); [17]): 20
- Plant response rating, Corn (corn (Zea mays); [18]): 0
- Plant response rating, Corn (corn (Zea mays); [19]): 0
- Foxtail, Giant plant response rating [8, 16]: 50
- Plant response rating, Foxtail, Giant [8, 17]: 90
- Plant response rating, Foxtail, Giant [8, 18]: 0
- Plant response rating, Foxtail, Giant [8, 19]: 80
- Barnyardgrass plant response rating [9, 16]: 90
- Plant response rating, Barnyardgrass [9, 17]: 100
- Plant response rating, Barnyardgrass [9, 18]: 40
- Plant response rating, Barnyardgrass [9, 19]: 80
- Plant response rating, Goosegrass [10]: 100
